This experiment relates to 5-HT3 receptors. As to the kind of experiment: Antagonism of 5-HT at 5-HT3 receptors: inhibition of 5-HT-induced bradycardia (von Benzold Jarisch Reflex) in anesthesized rats. Type of experiment: in vivo, rat. The note with it: 100 μg/kg, i.v. (intrajugular); 5-HT 30 μg/kg given 5 min. later; urethane-anesthesized rats; tested as hydrochloride except Example 9. Here is the method:
The compounds prepared in the above examples were respectively tested for antagonism of 5-HT at 5-HT3 receptors.
Administration of 5-HT (serotonin) to anesthesized rats via jugular vein induces temporary bradycardia (von Benzold Jarisch Reflex)(A.S. Paintal, Physiol. Rev., 53, 159-227 (1973)).
Thus, rats were anesthesized with urethane (1 g/kg, i.p.) and recorded for blood pressure and heart rate from left femoral artery. Percent inhibition was calculated from bradycardia induced by 5-HT (30 μg/kg) given 5 min. following intrajugular administration of a compound of the invention, taking the bradycardia induced by the intrajugular administration of 5-HT.
In this test, all of the test compounds were tested in the form of hydrochloride except for the compounds prepared in Example 9. Therefore, concentration of the test drug is expressed in terms of the concentration of the hydrochloride except for the compounds prepared in Example 9.
Consider `COc1ccc2ncc(C(=O)OCC3CCCCN3C)cc2c1` (stereo not shown) [Example 3], for which the “% Inhibition (of bradycardia induced by 5-HT)” value (“% Inhibition” below) was found to be 26%.

For `COc1cc(N)c(Cl)cc1C(=O)OC(C)C1CCCCN1C` (single isomer, unassigned) [7 (less polar isomer), (1-Methyl-Z-piperidyl)ethyl 2-methoxy-4 amino-5-chlorobenzoate], the “% Inhibition” value is on record as 50%.

Turning to `Cn1nc(C(=O)OCC2CCCC[N+]2(C)C)c2ccccc21` (stereo not shown) [Example 9, 1,1-Dimethyl-2-(1-methyl-3-indazolylcarboxymethyl)-piperidinium iodide], the “% Inhibition” value is recorded as 58%.

In the case of `COc1cc(N)ccc1C(=O)OC(C)C1CCCCN1C` (single isomer, unassigned) [5 (more polar isomer), 1-(1-Methyl-2-piperidyl)ethyl 2-methoxy-4-aminobenzoate], the “% Inhibition” value was determined as 16%.

Consider `COc1cc(N)c(Cl)cc1C(=O)OCC1CCCCN1C` (stereo not shown) [Example 6, 1-Methyl-2-piperidylmethyl 2-methoxy-4-amino-5-chlorobenzoate], for which the “% Inhibition” value came to 76%.

With `CC(OC(=O)c1nn(C)c2ccccc12)C1CCCCN1C` (single isomer, unassigned) [1 (less polar isomer), 1-(1-Methyl-2-piperidyl)ethyl 1-methylindazole-3-carboxylate], the “% Inhibition” value came to 49%.

For the molecule `CN1CCCCC1COC(=O)c1nn(C)c2ccccc12` (stereo not shown) [Example 2, 1-Methyl-2-piperidylmethyl 1-methylindazole-3-carboxylate], the “% Inhibition” value was found to be 34%.
